# Earlier results as cited in paper PMC6974622, “DeepMalaria: Artificial Intelligence Driven Discovery of Potent Antiplasmodials” (Frontiers in Pharmacology, 2020).
# Several values for one entry are separate records, joined by “and”; a condition that tells them apart may be missing. Identical values can stand only once. Counter-ions that a name gives are not always drawn. *1 amine or outer side, *2 acyl side, *3 side chain or, on linkers, in order; H or OH if unused. Where a SMILES comes first, the peptide text is derived from it. Bridges are numbered along the chain shown (N, C = ends). Roman numbers before positions name the chains, in order. [ ]: non-standard residue; d: D form. Actinocin(1to9) = Cc1c2oc3c(C)ccc(C(=O)[*:2])c3nc-2c(C(=O)[*:1])c(N)c1=O; Actinocin(9to1) = Cc1c2oc3c(C)ccc(C(=O)[*:1])c3nc-2c(C(=O)[*:2])c(N)c1=O; NMeV = CN[C@H](C(=O)O)C(C)C; Sar = CNCC(=O)O
# Tested on: 3D7
# Design: unit not given here
# Conditions: cited from earlier work
row,Structure (SMILES),3D7
1,CC1=CC(=C(c2ccc(N)cc2)c2ccc(N)cc2)C=CC1=N.Cl [Basic fuchsin],96.3
2,"CC[C@H](C)[C@@H]1NC(=O)[C@@H](NC(=O)c2c3nc4c(C(=O)N[C@@H]5C(=O)N[C@@H](C(C)C)C(=O)N6CCC[C@H]6C(=O)N(C)CC(=O)N(C)[C@@H](C(C)C)C(=O)O[C@@H]5C)ccc(C)c4oc-3c(C)c(=O)c2N)[C@@H](C)OC(=O)[C@H](C(C)C)N(C)C(=O)CN(C)C(=O)[C@@H]2CCCN2C1=O [Cactinomycin] (I: TIP[Sar][NMeV] / II: TVP[Sar][NMeV]; ester I:1-I:C, II:1-II:C; linker I:N-II:N via Actinocin(1to9))",99
3,O=P1(N(CCCl)CCCl)NCCCO1 (centres unmarked) [Cyclophosphamide],56.2

# Same assay, conditions: repurposing dataset, 179 approved drugs; ref https://www.nature.com/articles/nchembio806; cited from earlier work
row,Structure (SMILES),3D7
1,CO[C@H]1/C=C\O[C@@]2(C)Oc3c(C)c(O)c4c(O)c(c(C=O)c(O)c4c3C2=O)NC(=O)/C(C)=C\C=C/[C@H](C)[C@H](O)[C@@H](C)[C@@H](O)[C@@H](C)[C@H](OC(C)=O)[C@@H]1C [3-formyl rifamycin],99
2,N[C@H](C(=O)O)[C@@H]1CC(Cl)=NO1 [Acivicin],98.6
3,CC[C@@]1(O)C[C@H](O[C@H]2C[C@H](N(C)C)[C@H](O[C@H]3C[C@H](O)[C@H](O[C@H]4CCC(=O)[C@H](C)O4)[C@H](C)O3)[C@H](C)O2)c2c(cc3c(c2O)C(=O)c2c(O)cccc2C3=O)[C@H]1C(=O)OC [Aclarubicin],99.6
4,C[n+]1c2cc(N)ccc2cc2ccc(N)cc21.Nc1ccc2cc3ccc(N)cc3nc2c1.[Cl-] [Acriflavine],98.2 and 99
5,CCCCCCc1ccc(O)cc1O.Nc1c2ccccc2nc2ccccc12 [Acrisorcin],98.4
6,C=CC(=O)O [Acrylic acid],68.8
7,CCCCC(CC)CNC(=N)NC(=N)NCCCCCCNC(=N)NC(=N)NCC(CC)CCCC (centres unmarked) [Alexidine],99.5
8,N=C(N)NC(=O)c1nc(Cl)c(N)nc1N [Amiloride],73.2
9,Nc1c2ccccc2nc2ccccc12 [Aminacrine],97.6
10,Nc1nc(N)c2nc(CNc3ccc(C(=O)N[C@@H](CCC(=O)O)C(=O)O)cc3)cnc2n1 [Aminopterin],95.7
11,CCOC(=O)C1=C(COCCN)NC(C)=C(C(=O)OC)C1c1ccccc1Cl (centres unmarked) [Amlodipine besylate],68.2
12,C[C@@H]1[C@H](O)[C@@H](C)/C=C/C=C/C=C/C=C/C=C/C=C/C=C/[C@H](O[C@@H]2O[C@H](C)[C@@H](O)[C@H](N)[C@@H]2O)C[C@@H]2O[C@](O)(C[C@@H](O)C[C@@H](O)[C@H](O)CC[C@@H](O)C[C@@H](O)CC(=O)O[C@H]1C)C[C@H](O)[C@H]2C(=O)O [Amphotericin B],59.2
13,COc1ccc(C[C@H]2NC[C@H](O)[C@H]2OC(C)=O)cc1 [Anisomycin],97
14,C[C@@H]1CC[C@H]2[C@@H](C)C(=O)O[C@@H]3O[C@@]4(C)CC[C@@H]1[C@]32OO4 [Artemisinin],99.1
15,C[C@H]1[C@H](OC(=O)CCC(=O)O)O[C@@H]2O[C@@]3(C)CC[C@H]4[C@H](C)CC[C@@H]1[C@@]24OO3 [Artesunate],98.7
16,COc1ccc(CCN2CCC(Nc3nc4ccccc4n3Cc3ccc(F)cc3)CC2)cc1 [Astemizole],97.6
17,CC(=O)OC[C@H]1O[C@@H]([S-])[C@H](OC(C)=O)[C@@H](OC(C)=O)[C@@H]1OC(C)=O.CCP(CC)CC.[Au+] [Auranofin],99.4
18,CC[C@H]1OC(=O)[C@H](C)[C@@H](O[C@H]2C[C@@](C)(OC)[C@@H](O)[C@H](C)O2)[C@H](C)[C@@H](O[C@@H]2O[C@H](C)C[C@H](N(C)C)[C@H]2O)[C@](C)(O)C[C@@H](C)CN(C)[C@H](C)[C@@H](O)[C@]1(C)O [Azithromycin],80.2
19,CC(C)(C)CC(C)(C)c1ccc(OCCOCC[N+](C)(C)Cc2ccccc2)cc1 [Benzethonium chloride],98.6
20,CCCCCCCCCCCC[N+](C)(C)Cc1ccccc1 [Benzododecinium chloride],99.9
21,CN1[C@@H]2CC[C@H]1C[C@@H](OC(c1ccccc1)c1ccccc1)C2 [Benztropine mesylate],70.6

row,Structure (SMILES),3D7
1,C[N+](C)(CCOc1ccccc1)Cc1ccccc1.O=C(O)c1cc2ccccc2cc1[O-] [Bephenium hydroxynaphthoate],70.2
2,COc1ccc2cc3[n+](cc2c1OC)CCc1cc2c(cc1-3)OCO2 [Berberine],98.2
3,O.O=C(O)c1cc(O)c2c(c1)[O][Bi][O]2 [Bismuth gallate],56.5
4,CN(C)CCOC(c1ccccc1)c1ccc(Br)cc1 (centres unmarked) [Bromodiphenhydramine],64.2
5,Oc1c(Br)cc(Br)c2cccnc12 [Broxyquinoline],90.8
6,CCCCOc1ccc(CC(=O)NO)cc1 [Bufexamac],93.2
7,CCCCCCCCCCCCCCCC[N+](C)(C)Cc1ccccc1 [Cetalkonium chloride],74.2
8,CCCCCCCCCCCCCCCC[n+]1ccccc1 [Cetylpyridinium chloride],98.6
9,[H]/N=C(\N/C(=N/[H])NCCCCCCNC(=N)NC(=N)Nc1ccc(Cl)cc1)Nc1ccc(Cl)cc1 [Chlorhexidine],95.4
10,CCN(CC)CCCC(C)Nc1ccnc2cc(Cl)ccc12 (centres unmarked) [Chloroquine diphosphate],97.3
11,CN(C)CCOC(C)(c1ccccc1)c1ccc(Cl)cc1 (centres unmarked) [Chlorphenoxamine],90.8
12,CO[C@@H]1[C@H](O)C[C@@H](O[C@@H]2C[C@H](Oc3cc4cc5c(c(O)c4c(O)c3C)C(=O)[C@@H](O[C@H]3C[C@@H](O[C@H]4C[C@@H](O[C@H]6C[C@](C)(O)[C@@H](OC(C)=O)[C@H](C)O6)[C@H](O)[C@@H](C)O4)[C@H](O)[C@@H](C)O3)[C@H]([C@H](OC)C(=O)[C@@H](O)[C@@H](C)O)C5)O[C@H](C)[C@@H]2OC(C)=O)O[C@@H]1C [Chromomycin A3],98.4
13,Cc1cc(C2CCCCC2)n(O)c(=O)c1 [Ciclopirox olamine],96.9
14,C=C[C@H]1CN2CC[C@H]1C[C@H]2[C@H](O)c1ccnc2ccccc12 [Cinchonidine],97
15,C=C[C@H]1CN2CC[C@H]1C[C@@H]2[C@@H](O)c1ccnc2ccccc12.C=C[C@H]1CN2CC[C@H]1C[C@@H]2[C@@H](O)c1ccnc2ccccc12.O=S(=O)(O)O [Cinchonine sulfate],88.6
16,CN1CCC[C@@H]1CCO[C@](C)(c1ccccc1)c1ccc(Cl)cc1 [Clemastine],96.5
17,NC1CCN(c2c(F)cc3c(=O)c(C(=O)O)cn(C4CC4)c3c2Cl)C1 (centres unmarked) [Clinafloxacin],79.3
18,CCC(=O)O[C@]1(C(=O)CCl)[C@@H](C)C[C@H]2[C@@H]3CCC4=CC(=O)C=C[C@]4(C)[C@@]3(F)[C@@H](O)C[C@@]21C [Clobetasol propionate],86
19,Oc1ccc(Cl)c2cccnc12 [Cloxyquin],83.6
20,O=S(=O)([O-])[O-].[Cu+2] [Copper sulfate],80.4
21,C[C@@H]1C[C@@H]([C@H](O)CC2CC(=O)NC(=O)C2)C(=O)[C@@H](C)C1 [Cycloheximide],97.7

row,Structure (SMILES),3D7
1,"Cc1c2oc3c(C)ccc(C(=O)N[C@@H]4C(=O)N[C@H](C(C)C)C(=O)N5CCC[C@H]5C(=O)N(C)CC(=O)N(C)[C@@H](C(C)C)C(=O)O[C@@H]4C)c3nc-2c(C(=O)N[C@@H]2C(=O)N[C@H](C(C)C)C(=O)N3CCC[C@H]3C(=O)N(C)CC(=O)N(C)[C@@H](C(C)C)C(=O)O[C@@H]2C)c(N)c1=O [Dactinomycin] (I: T[dV]P[Sar][NMeV] / II: T[dV]P[Sar][NMeV]; ester I:1-I:C, II:1-II:C; linker I:N-II:N via Actinocin(9to1))",99.2
2,COc1cccc2c1C(=O)c1c(O)c3c(c(O)c1C2=O)C[C@@](O)(C(C)=O)C[C@@H]3O[C@H]1C[C@H](N)[C@H](O)[C@H](C)O1 [Daunorubicin],99.6
3,C[N+](C)(C)CCCCCCCCCC[N+](C)(C)C [Decamethonium bromide],54.8
4,CN(CCCCCCCCCCN(C)C(=O)Oc1cccc([N+](C)(C)C)c1)C(=O)Oc1cccc([N+](C)(C)C)c1 [Demecarium bromide],95.9
5,Cc1cc(N)c2ccccc2[n+]1CCCCCCCCCC[n+]1c(C)cc(N)c2ccccc21 [Dequalinium chloride],97.6
6,Clc1ccc2c(c1)CCc1cccnc1C2=C1CCNCC1 [Desloratadine],81.1
7,Oc1ccc(CCN2CCC(Nc3nc4ccccc4n3Cc3ccc(F)cc3)CC2)cc1 [Desmethylastemizole],96.7
8,CCOC(=O)NC1=C(N2CC2)C(=O)C(NC(=O)OCC)=C(N2CC2)C1=O [Diaziquone],97.3
9,CC/C(=C(/CC)c1ccc(O)cc1)c1ccc(O)cc1 [Diethylstilbestrol],57.3
10,CN1C[C@H](C(=O)N[C@]2(C)O[C@@]3(O)[C@@H]4CCCN4C(=O)[C@H](Cc4ccccc4)N3C2=O)C[C@@H]2c3cccc4[nH]cc(c34)C[C@H]21 [Dihydroergotamine mesylate],88.1
11,C[N+]1(C)CCC(=C(c2ccccc2)c2ccccc2)CC1 [Diphemanil],90
12,CCN1/C(=C/C=C/C=C/c2sc3ccccc3[n+]2CC)Sc2ccccc21 [Dithiazanine iodide],98
13,CCCCCCCCCCCC[N+](C)(C)CCOc1ccccc1 [Domiphen bromide],98.3
14,O=c1[nH]c2ccccc2n1CCCN1CCC(n2c(=O)[nH]c3cc(Cl)ccc32)CC1 [Domperidone],82.2
15,COc1cc2nc(N3CCN(C(=O)C4COc5ccccc5O4)CC3)nc(N)c2cc1OC (centres unmarked) [Doxazosin mesylate],96.4
16,COc1cccc2c1C(=O)c1c(O)c3c(c(O)c1C2=O)C[C@@](O)(C(=O)CO)C[C@@H]3O[C@H]1C[C@H](N)[C@H](O)[C@H](C)O1 [Doxorubicin],99.5
17,O=c1oc2c(O)c(O)cc3c(=O)oc4c(O)c(O)cc1c4c23 [Ellagic acid],87.1
18,CC[C@H]1CN2CCc3cc(OC)c(OC)cc3[C@@H]2C[C@@H]1C[C@H]1NCCc2cc(OC)c(OC)cc21 [Emetine],98.3
19,COc1cccc2c1C(=O)c1c(O)c3c(c(O)c1C2=O)C[C@@](O)(C(=O)CO)C[C@@H]3O[C@H]1C[C@H](N)[C@@H](O)[C@H](C)O1 [Epirubicin],98.4
20,CNC(=O)Oc1ccc2c(c1)[C@]1(C)CCN(C)[C@@H]1N2C [Eserine],79.2
